Measurements reported in patent US20190328833A1, “POLYMYXIN-ALGINATE OLIGOMER CONJUGATES” (AlgiPharma AS, priority 2016, published 2019).

Legend:
[1] = system: Acinetobacter baumanii (V19); assay: Two-compartment static dialysis bag PK/PD model, colony counts; type: cell-based; conditions: at MIC (0.25 μg/ml); after 4 h; Batch 6
Excerpt: Studies were undertaken to investigate the PK/PD profiles of the OligoG-colistin conjugates (Batch 6) as compared to non-conjugated colistin in vitro. This is particularly important in nanoscale drug delivery systems where the incorporation of conventional small molecule drugs into nano-sized structures is associated with PK/PD properties that are substantially altered from the original drug. The model system previously described in Azzopardi (supra) was employed.
The unmasking of OligoG-colistin conjugates was simulated using the Azzopardi two-compartment static dialysis bag model under infinite sink conditions (total volume, 20 ml; inner-compartment volume, 5 ml). Dialysis membrane (10,000 g/mol molecular weight cutoff [MWCO]) was pre-soaked for 15 to 30 min in distilled water (dH2O), secured with dialysis clips, and suspended from an injection port to separate the inner compartment (IC) from the outer compartment (OC) in a sterilized 25-ml beaker sealed with a sterile medical-grade polyurethane membrane (Tegaderm).
The model system was prepared under aseptic conditions in a class 2 laminar airflow cabinet and transferred to a shaking incubator set at 37° C. in ambient air and constant orbital agitation at 70 rpm for 48 h. […] Samples were collected from the OC at various time points and characterised by bacterial colony counts (CFU/ml) using Miles and Misra Method.

[2] = system: V1 Pseudomonas aeruginosa R22; assay: MIC, broth microdilution, V1; type: cell-based; conditions: n=3, median
Procedure: (§1) The strains used for susceptibility testing include both culture collection strains and clinical isolates (Table 1). To the extent indicated below, their known relevant genotypes and origin have been described by Khan et al. supra.
(§2) The MICs were determined using the broth microdilution method in accordance with standard guidelines (CLSI 2012). Test organisms were suspended in Mueller Hinton cation adjusted (MH) broth (100 μL, 1-5×10^4 CFU/mL) and incubated in 96-well microtitre plates in serial two-fold dilutions of the test compounds. The MIC was defined as the lowest concentration of test compound that produced no visible growth after 16-20 hours.

V3 Klebsiella pneumoniae = assay: MIC, broth microdilution, V3; type: cell-based; conditions: for MIC V3: n=3, median
Procedure: as §1, §2

[3] = system: TNFα release from HK2 cells; assay: TNFα release from HK2 cells (ELISA); type: cell-based, human; conditions: 72 h incubation, FIG. 8
Procedure: As a model inflammatory cytokine involved in polymyxin cyto toxicity, TNFα release from HK2 cells in response to polymyxins and OligoG-polymyxin conjugates was measured by ELISA. HK-2 cells were seeded into sterile 96-well microtitre plates (1×10^5 cells/mL) in 0.1 mL/well of media (K-SFM) containing L-glutamine, EGF and BPE. They were allowed to adhere for 24 h. The medium was then removed and a range of concentrations of test compounds (0.2 μm filter-sterilized) dissolved in fresh culture media were added to the cells. After 72 h incubation, microtiter plates were centrifuged (1500 rpm, 3 min) and the supernatant was transferred into a new 96-well microtitre plate.
TNFα ELISA Assay was carried out according the manufacturer's instructions (Thermo Scientific, ESS0001). Briefly, 100 μL of coating antibody (1:100 dilution in PBS) was added to each well of 96-well microtitre plate. […] Absorbance was measured at 450 nm minus 550 nm.
Standard curves were generated by plotting the average absorbance obtained for each standard concentration on the vertical (Y) axis versus the corresponding human TNFα concentration (pg/mL) on the horizontal (X) axis. Human TNFα amount in each sample was determined by interpolating from the absorbance value (Y-axis) to human TNFα concentration (X-axis) using the standard curve. […]

V11 Escherichia coli = assay: MIC, broth microdilution, V11; type: cell-based; conditions: Batch 6; n=3, median
Procedure: as §1, §2

[4] = system: V4 Acinetobacter baumanii MDR ACB; assay: MIC, broth microdilution, V4; type: cell-based; conditions: n=3, median
Procedure: as §1, §2

[5] = system: NH57388A Pseudomonas aeruginosa; assay: MIC, broth microdilution, NH57388A; type: cell-based; conditions: Batch 6; n=3, median
Procedure: as §1, §2

[6] = system: V6 Klebsiella pneumoniae IR25; assay: MIC, broth microdilution, V6; type: cell-based; conditions: n=3, median
Procedure: as §1, §2

[7] = system: V19 Acinetobacter baumannii; assay: MIC, broth microdilution, V19; type: cell-based; conditions: for MIC V19: n=3, median
Procedure: as §1, §2

[8] = system: human kidney (HK-2) cell line; assay: In vitro cytotoxicity: MTT assay; type: cell-based; conditions: HK-2, 72 h, concentration of the antibiotic or the antibiotic within the conjugate, mean (n=18)
Procedure: An MTT assay was used to assess cell viability in a human kidney (HK-2) cell line (72 h incubation). HK-2 cells were seeded into sterile 96-well microtitre plates (1×10^5 cells/mL) in 0.1 mL/well of media (K-SFM) containing L-glutamine, EGF and BPE. They were allowed to adhere for 24 h. The medium was then removed and a range of concentrations of test compounds (0.2 μm filter-sterilized) dissolved in fresh culture media were added to the cells. After a further 67 h incubation, MTT, 3-(4,5-dimethylthiazol-2-yl)-2,5-diphenyltetrazolium bromide, (20 μL of a 5 mg/mL solution in PBS) was added to each well and the cells were incubated for a further 5 h. The medium was then removed and the precipitated formazan crystals solubilized by addition of optical grade DMSO (100 μL) over 30 min. Absorbance was measured at 540 nm using a microtitre plate reader. Cell viability was expressed as a percentage of the viability of untreated control cells. The IC50 values were expressed as mean (n=18).
The IC50 values summarised below represent the concentration of the antibiotic (polymyxin B, colistin sulphate or colistin methanesulphonate (CMS)) or the antibiotic within the conjugate required to inhibit HK2 cells growth by half. OligoG is included as a control.

V5 Escherichia coli = assay: MIC, broth microdilution, V5; type: cell-based; conditions: n=3, median
Procedure: as §1, §2

V7 Escherichia coli = assay: MIC, broth microdilution, V7; type: cell-based; conditions: for MIC V7: n=3, median
Procedure: as §1, §2

[9] = system: Pseudomonas aeruginosa biofilms; assay: Disruption of biofilm development (CLSM, live/dead stain); type: cell-based; conditions: 2×MIC-MIC/8; 24 h
Procedure: (§3) These experiments investigated whether OligoG-colistin conjugates could inhibit biofilm development more effectively than unconjugated forms of colistin. First, stock solutions of the test compounds were prepared at 1 mg/mL in MH broth and used to prepare a range of antibiotic concentrations (2×MIC-MIC/8) using double dilutions in MH broth across wells of a Greiner glass-bottomed optical 96-well plate (90 μL per well). Sterility (100 μL of MH broth) and growth (90 μL of MH broth plus 10 μL of tested bacterial pathogen) controls were also prepared. Overnight bacterial cultures were grown in TS broth (TSB) and diluted in MH broth to achieve an OD625 of 0.5, then 10 μL was added to the wells. Plates were wrapped in parafilm and incubated for 24 h on a rocker (20 rpm) at 37° C. After a 24 h incubation, the supernatant was carefully removed from all wells and 3 μL of live/dead stain (Live/dead Baclight Bacterial Viability kit; prepared by mixing 1 μL of component A and B in 1 mL of PBS) was added. The plate was wrapped in foil and kept in the dark for 15 min. Lastly, 47 μL of PBS was added to all tested wells. The plate was wrapped in parafilm and kept in the dark until it was analysed by confocal laser scanning microscopy (CLSM), n=2.

Pseudomonas aeruginosa = assay: MIC quoted for the biofilm study; type: cell-based; conditions: FIG. 9 legend and Example 7; strain not stated
Procedure: as §2
as §3, with “After a 24 h incubation, the supernatant was carefully removed from all wells and 3 μL of live/dead stain (Live/dead Baclight Bacterial Viability kit; prepared by mixing 1 μL of component A and B in 1 mL of PBS) was added. The plate was wrapped in foil and kept in the dark for 15 min. Lastly, 47 μL of PBS was added to all tested wells.” left out

[10] = system: V2 Pseudomonas aeruginosa (301); assay: MIC, broth microdilution, V2; type: cell-based; conditions: for MIC V2: n=3, median
Procedure: as §1, §2

[11] = system: V2 Pseudomonas aeruginosa, V3 Klebsiella pneumoniae, V19 Acinetobacter baumannii, V7 Escherichia coli; assay: Bacterial growth curves (absorbance at 600 nm, 48 h); type: cell-based
Procedure: Finally, bacterial growth curves, using the mean of the previously determined MIC values for OligoG-colistin conjugates (amide and ester linked) and colistin sulfate, were used to compare their pharmacokinetic profiles in vitro. For comparison, bacterial growth in the presence of i) OligoG, ii) PRONOVA (high molecular weight alginate) and iii) OligoG plus colistin, both at concentrations corresponding to the amounts present in the corresponding conjugates, was measured. Sterile 96-well microtitre plates were set up for MIC assay as previously described (range: MIC×16 to MIC/16, 0). Plates were then wrapped in parafilm and placed in a microtitre plate reader at 37° C., 5% CO2 and absorbance at 600 nm was measured hourly for 48 h. Experiments were conducted in triplicate and results were presented as mean values (n=3).

colistin sulfate
reduction of viable bacterial counts [1]: ~2 fold
MIC V1 ([2]; Batch 4): 0.25 µg/mL
MIC V1 ([2]; Batch 6): 0.5 µg/mL
MIC V3 (V3 Klebsiella pneumoniae; Batch 2): <0.125 µg/mL
MIC V3 (V3 Klebsiella pneumoniae; Batch 4): <0.063 µg/mL
MIC V3 (V3 Klebsiella pneumoniae; Batch 6): 0.125 µg/mL
median MIC (V3 Klebsiella pneumoniae; FIG. 2 legend, V3, MIC used for growth curves): 8 ng/mL
TNFα release, adjusted for cell viability [3]: greater TNFα release
MIC V11 (V11 Escherichia coli): 0.031 µg/mL
MIC V4 ([4]; Batch 4): 0.5 µg/mL
MIC V4 ([4]; Batch 6): 0.5 µg/mL
MIC NH57-388A [5]: 0.25 µg/mL
MIC V6 ([6]; Batch 4): 0.0625 µg/mL
MIC V6 ([6]; Batch 6): 0.063 µg/mL
MIC V19 ([7]; Batch 2): <0.0625 µg/mL
MIC V19 ([7]; Batch 4): <0.016 µg/mL
MIC V19 ([7]; Batch 6): 0.25 µg/mL
median MIC ([7]; FIG. 3 legend, V19, MIC used for growth curves): 2 ng/mL
IC50 ([8]; Batch 4): 0.025 mg/mL
IC50 ([8]; Batch 5): 0.01098 mg/mL
MIC V5 (V5 Escherichia coli; Batch 2): 0.02 ng/mL
MIC V5 (V5 Escherichia coli; Batch 4): <16 ng/mL
MIC V5 (V5 Escherichia coli; Batch 6): <8 ng/mL
MIC V7 (V7 Escherichia coli; Batch 4): 0.125 µg/mL
MIC V7 (V7 Escherichia coli; Batch 6): 0.25 µg/mL
median MIC (V7 Escherichia coli; FIG. 4 legend, V7, MIC used for growth curves): 0.063 µg/mL
effect on biofilms [9]: only a small effect on P. aeruginosa biofilms
median MIC (Pseudomonas aeruginosa): 0.063 µg/mL
MIC V2 ([10]; Batch 2): 0.25 µg/mL
MIC V2 ([10]; Batch 4): 0.25 µg/mL
MIC V2 ([10]; Batch 6): 0.5 µg/mL
median MIC ([10]; FIG. 1 legend, V2, MIC used for growth curves): 0.063 µg/mL
bacterial growth / regrowth in growth curves ([11]; FIGS. 1-5, 48 h): more rapid bacterial regrowth
inhibition of bacterial re-growth ([11]; at the median of previously determined MIC values across all batches): shortest inhibition of bacterial re-growth
concentration inhibiting bacterial re-growth for up to 48 h ([11]; up to 48 h): > 8 ×MIC

polymyxin B
MIC V1 ([2]; Batch 4): 0.25 µg/mL
MIC V1 ([2]; Batch 6): 0.25 µg/mL
MIC V3 (V3 Klebsiella pneumoniae; Batch 2): <0.125 µg/mL
MIC V3 (V3 Klebsiella pneumoniae; Batch 4): 0.125 µg/mL
MIC V3 (V3 Klebsiella pneumoniae; Batch 6): 0.125 µg/mL
TNFα release, adjusted for cell viability [3]: greater TNFα release
MIC V11 (V11 Escherichia coli): 0.063 µg/mL
MIC V4 ([4]; Batch 4): 0.125 µg/mL
MIC V4 ([4]; Batch 6): 0.125 µg/mL
MIC NH57-388A [5]: 0.25 µg/mL
MIC V6 ([6]; Batch 4): 0.125 µg/mL
MIC V6 ([6]; Batch 6): 0.125 µg/mL
MIC V19 ([7]; Batch 2): <0.0625 µg/mL
MIC V19 ([7]; Batch 4): 0.031 µg/mL
MIC V19 ([7]; Batch 6): 0.125 µg/mL
IC50 ([8]; Batch 4): 0.012 mg/mL
IC50 ([8]; Batch 5): 0.01263 mg/mL
MIC V5 (V5 Escherichia coli; Batch 2): <0.008 ng/mL
MIC V5 (V5 Escherichia coli; Batch 4): <16 ng/mL
MIC V5 (V5 Escherichia coli; Batch 6): <4 ng/mL
MIC V7 (V7 Escherichia coli; Batch 4): 0.063 µg/mL
MIC V7 (V7 Escherichia coli; Batch 6): 0.5 µg/mL
MIC V2 ([10]; Batch 2): 0.25 µg/mL
MIC V2 ([10]; Batch 4): 0.5 µg/mL
MIC V2 ([10]; Batch 6): 0.5 µg/mL

colistin methanesulphonate [CMS]
IC50 ([8]; Batch 5): 0.01397 mg/mL
